US20220324965A1, “COMBINATION THERAPY INVOLVING ANTIBODIES AGAINST CLAUDIN 18.2 AND IMMUNE CHECKPOINT INHIBITORS FOR TREATMENT OF CANCER” (Astellas Pharma Inc., priority 2019, published 2022)

What was measured:
Assay type in all cases: in vivo
[1] = tested on: CLS-103 LVT-murinCLDN18.2 syngeneic tumors; experiment: Efficacy of IMAB362 plus anti-mPD-L1 antibody in subcutaneous syngeneic gastric carcinoma model, endpoint day 14 (Example 4); conditions: n=12 per group, IMAB362 800 μg/mouse, anti-mPD-L1 antibody 300 μg/mouse, intraperitoneal twice per week, vs Rituximab/isotype control group
Source text: (§1) In order to determine whether a combination of an anti-CLDN18.2 antibody and an immune checkpoint inhibitor improves anti-tumor activity over the single agents alone in vivo, anti-tumor activity of IMAB362 in combination with an anti-mPD-L1 antibody was examined in a subcutaneously transplanted syngeneic gastric carcinoma model in immunocompetent outbred Crl:NMRI(Han) mice using CLS-103 cells with lentiviral transduction of murine CLDN18.2 (CLS-103 LVT-murinCLDN18.2). Rituximab was used as an isotype control of IMAB362.
(§2) • Anti-CLDN18.2 antibody: IMAB362 (Astellas Pharma Inc.) • control antibody: Rituximab BS Intravenous Infusion [KHK] […]
(§3) Lentivirally transduced mouse CLDN18.2 expressing tumor cells (CLS-103 LVT-murinCLDN18.2) were engrafted subcutaneously into the right flank of female Crl:NMRI(Han) mice (11-week-old) at 2×10^6 cells/mouse. Mice were randomized based on tumor volume measured 2 days after engraftment into 4 groups (n=12 per group). […] Tumors were measured twice per week. […] Tumor volume was determined by length×width×width×0.5. Tumor growth inhibition (TGI [%]) or tumor regression rate (TRR [%]) of each group was calculated using the equations described below. […]

[2] = tested on: CLS-103 LVT-murinCLDN18.2 syngeneic tumors; experiment: Long-term efficacy of IMAB362 plus anti-mPD-1 antibody in subcutaneous syngeneic gastric carcinoma model, up to day 28 (Example 2); conditions: IMAB362 800 μg/mouse, anti-mPD-1 antibody 100 μg/mouse, intraperitoneal twice per week
Source text: as §1, with “vivo in long-term period,” for “vivo,”, “anti-mPD-1” for “anti-mPD-L1”, “examined up to day 28” for “examined”
as §2
Lentivirally transduced mouse CLDN18.2 expressing tumor cells (CLS-103 LVT-murinCLDN18.2) were engrafted subcutaneously into the right flank of female Crl:NMRI(Han) mice (11-week-old) at 2×10^6 cells/mouse. Mice were randomized based on tumor volume measured 2 days after engraftment into 4 groups (n=12 per group). […] Tumors were measured twice per week. […] Tumor volume was determined by length×width×width×0.5. Mean tumor volume was calculated up to day 21 since 1 of 12 mice in the Rituximab/isotype treated group, as well as in the anti-mPD-1 antibody single agent group, was sacrificed due to tumor size being over 2000 mm^3. […] Complete regression (CR) was determined up to day 28 as the tumor volume of individual regressed to zero. […]

[3] = tested on: CLS-103 LVT-murinCLDN18.2 syngeneic tumors; experiment: Efficacy of IMAB362 plus anti-mCTLA-4 antibody in subcutaneous syngeneic gastric carcinoma model, endpoint day 14 (Example 3); conditions: n=12 per group, IMAB362 800 μg/mouse, anti-mCTLA-4 antibody 300 μg/mouse, intraperitoneal twice per week, vs Rituximab/isotype control group
Source text: as §1, with “anti-mCTLA-4” for “anti-mPD-L1”
as §2, §3

[4] = tested on: CLS-103 LVT-murinCLDN18.2 syngeneic tumors; experiment: Efficacy of IMAB362 plus anti-mPD-1 antibody in subcutaneous syngeneic gastric carcinoma model, endpoint day 14 (Example 1); conditions: female Crl:NMRI(Han) mice, n=12 per group, IMAB362 800 μg/mouse, anti-mPD-1 antibody 100 μg/mouse, intraperitoneal twice per week, vs Rituximab/isotype control group
Source text: as §1, with “provides improved” for “improves”, “anti-mPD-1” for “anti-mPD-L1”, “[…]).” for “LVT-murinCLDN18.2).”
as §2
as §3, with “(10-week-old)” for “(11-week-old)”, “(TGI[%])” for “(TGI [%]) or tumor regression rate (TRR [%])”, “equation” for “equations”

IMAB362: chimeric IgG1 antibody directed against CLDN18.2; heavy chain SEQ ID NO: 51, light chain SEQ ID NO: 24
Tumor growth inhibition (TGI) [1]: 60% | Tumor growth inhibition (TGI) ([2]; day 21, n=12 per group, vs Rituximab/isotype control group): 40% | number of mice with complete regression (CR) in the group of 12 mice ([2]; day 28, CR = tumor volume regressed to zero): 2 | Tumor growth inhibition (TGI) [3]: 72% | Tumor growth inhibition (TGI) [4]: 50%
